# Results published in article PMC9953224, “Pharmacokinetic Evaluation of New Drugs Using a Multi-Labelling Approach and PET Imaging: Application to a Drug Candidate with Potential Application in Neuromuscular Disorders” (Biomedicines, 2023).
# “Also recorded” adds a separate entry of the source.
# What was measured:
# [1] = molecular target: T1, FKBP12/RyR interaction (Homo sapiens, UniProt P62942); experiment: In situ proximity ligation assay (PLA) in human myotubes under nitro-oxidative stress; type: cell-based; conditions: human myotubes challenged with peroxynitrite donor SIN1 (5 mM, 30 min)
# T1 construct: endogenous in cells; host or cells: immortalized human myoblasts differentiated into myotubes
# Description: In situ PLA was used for evaluation of FKBP12/RyR stability in human myotubes under nitro-oxidative stress, as previously described. Briefly, immortalized human myoblasts (Myology Institute, Paris, France) were differentiated into myotubes and nitro-oxidative stress was induced by addition of the peroxynitrite donor 3-morpholinosydnonimine (SIN1, 5 mM, SCBT, Heidelberg, Germany) for 30 min. Myotubes were fixed with 4% paraformaldehyde (Aname, Madrid, Spain) and incubated overnight with the following primary antibodies: anti-RyR mouse mAb (1:200, Thermo Scientific, Waltham, MA, USA), and anti-FKBP12 rabbit pAb (1:100, Novus Biologicals, Centennial, CO, USA). The Duolink in situ PLA Orange assay kit was used with corresponding conjugated secondary antibodies (Sigma). Samples were counterstained with FITC-conjugated Myosin Heavy Chain-CFS mAb (MyHC, 1:50, R&D, Minneapolis, MN, USA) and mounted with ProLong Gold antifade reagent (Life Technologies, Eugene, OR, USA). Image quantification was performed with ImageJ (NIH). For each image, the total number of spots was normalized to the MyHC area. At least 3 images per condition were analysed with an average of 8–9 myotubes per image. Statistical significance was determined using One-Way ANOVA followed by Dunett’s multiple comparisons test. p-values < 0.05 were considered statistically significant.
# [2] = molecular target: T2, FKBP12 (Homo sapiens, UniProt P62942); experiment: Competitive ligand binding assay (FKBP/FRB NanoBiT luminescence protein complementation) in HEK293 cells; type: cell-based
# T2 construct: host or cells: HEK293
# T2 sequence (P62942 whole entry): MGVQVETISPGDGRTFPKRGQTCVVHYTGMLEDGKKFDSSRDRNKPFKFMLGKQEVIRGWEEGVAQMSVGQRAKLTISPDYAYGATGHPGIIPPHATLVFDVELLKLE
# Description: Briefly, HEK293 (ATCC) cells were transfected with FKBP/FRB NanoBiT Control Pair (Promega, Madison, WI, USA) and kinetic measurements were performed 24 h after transfection with Nano-Glo Live Cell Reagent (Promega), as described by the manufacturer. A total of 30 nM rapamycin (Sigma-Aldrich, Madrid, Spain) and AHK2 (1 μM–10 mM) was sequentially added and each effect was recorded for 10 min. Specific activity was normalized to vehicle, and IC50 was calculated using GraphPad Prism by fitting the data to a four-parameter logistic curve.
# [3] = In vitro metabolism with rat liver microsomes; type: in vitro ADME; conditions: NADPH, 30 min
# Description: Labelled compounds ([^11C]AHK2.1, 2.8 MBq, 0.4 nmol; [^11C]AHK2.2, 4.7–5.1 MBq, 0.2–0.4 nmol; [^3H]AHK2, 0.25 MBq, 0.5 nmol; or non-radioactive AHK2, the latter for metabolite identification) and microsomal protein (rat Sprague Dawley microsomes, Thermo Fisher Scientific, Carlsbad, CA, USA; which are a sub-cellular fraction of hepatocytes containing enzymes responsible for the metabolism of over 90% of commercial drugs; 20 mg/mL) were pre-incubated for 5 min with gentle agitation (300 rpm) in 100 mM phosphate buffer (pH 7.4). The reaction was initiated by the addition of 10 μL freshly prepared 20 mM nicotinamide adenine dinucleotide phosphate (NADPH, Roche, Mannheim, Germany) in 100 mM phosphate buffer (pH 7.4). […] The resulting supernatants were analysed by HPLC, using an Agilent 1200 Series chromatograph equipped with a multiple wavelength UV detector (λ = 254 nm) and two radioactivity detectors, one of them equipped with a solid scintillation cell, especially designed to detect low energy β^- (Ramona, Raytest), and one of them equipped with a NaI crystal, for the detection of γ-rays (Gabi, Raytest). […] For the non-radioactive AHK2, the resulting supernatants were analysed by ultra-high-performance liquid chromatography coupled with electrospray ionization time-of-flight mass spectrometry (UHPLC-ESI-TOF-MS, Electrospray positive mode/W mode m/z range 100–1000). […]
compound,measurement,setting,value
"COc1ccc(SCc2cn(CCN(C)C)nn2)cc1 [AHK2, 1-[2-(N,N-dimethylamino)ethyl]-4-[(4-methoxyphenyl)thiomethyl]-1H-1,2,3-triazole]",increase of FKBP12/RyR interaction (stabilization),[1],89%
same,IC50,"[2]; 30 nM rapamycin, AHK2 1 μM–10 mM, read-out: IC50, displacement of rapamycin from FKBP12 (inhibition of FKBP12-Rapamycin-FRB interaction)",2980 µM
same,induction of FKBP12/FRB dimerization (luminescence),[2]; rapamycin 30 nM,did not induce FKBP12/FRB dimerization; also recorded: not able to induce FKBP12/FRB dimerization
same,main metabolic pathways,[3],"oxidation of the thioether group into sulfoxide, demethylation of the CH3O-Ar residue and demethylation of –N(CH3)2"
